Legend:
cytochrome P450 2B6 = target: T1, cytochrome P450 2B6 (Homo sapiens, UniProt P20813, K262R/Y226H); test: X-ray crystal structure; assay type: biochemical
T1 sequence (P20813 29-491 Y226H/K262R): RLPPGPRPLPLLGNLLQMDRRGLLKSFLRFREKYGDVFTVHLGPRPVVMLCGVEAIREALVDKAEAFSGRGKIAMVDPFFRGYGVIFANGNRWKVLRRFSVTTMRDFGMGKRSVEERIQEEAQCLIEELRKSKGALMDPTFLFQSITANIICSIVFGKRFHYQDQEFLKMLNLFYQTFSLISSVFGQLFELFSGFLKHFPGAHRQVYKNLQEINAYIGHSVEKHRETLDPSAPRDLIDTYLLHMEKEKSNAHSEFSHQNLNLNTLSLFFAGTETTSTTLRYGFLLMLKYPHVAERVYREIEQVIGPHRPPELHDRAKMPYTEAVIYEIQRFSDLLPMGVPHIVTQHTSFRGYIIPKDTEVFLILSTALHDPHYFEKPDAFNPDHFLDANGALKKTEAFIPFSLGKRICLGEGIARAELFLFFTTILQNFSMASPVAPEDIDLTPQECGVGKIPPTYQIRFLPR

cytochrome P450 2B4 = target: T2, cytochrome P450 2B4 (Oryctolagus cuniculus, UniProt P00178, H226Y); test: X-ray crystal structure; assay type: binding
T2 sequence (P00178 28-491 H226Y): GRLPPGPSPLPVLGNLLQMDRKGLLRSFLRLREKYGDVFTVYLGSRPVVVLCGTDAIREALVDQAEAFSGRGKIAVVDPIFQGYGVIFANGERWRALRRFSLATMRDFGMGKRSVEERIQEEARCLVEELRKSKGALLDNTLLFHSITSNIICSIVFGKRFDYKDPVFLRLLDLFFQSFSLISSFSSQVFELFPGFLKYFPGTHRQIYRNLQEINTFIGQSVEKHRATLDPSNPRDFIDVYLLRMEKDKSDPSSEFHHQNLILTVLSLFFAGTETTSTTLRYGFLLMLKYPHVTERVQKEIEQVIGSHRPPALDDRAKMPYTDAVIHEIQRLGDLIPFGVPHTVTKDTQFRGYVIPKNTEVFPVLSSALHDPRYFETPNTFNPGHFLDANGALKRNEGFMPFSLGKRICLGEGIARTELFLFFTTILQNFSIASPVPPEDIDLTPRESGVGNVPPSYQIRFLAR

CCOC(=O)C1=C(COCCN)NC(C)=C(C(=O)OC)C1c1ccccc1Cl (centres unmarked) [amlodipine]
IC50 (cytochrome P450 2B6): 1600 nM
Kd (cytochrome P450 2B4): 2060 nM

Reference: PMC3485383 (Biochemistry, 2012)
